{
  "source": "paper PMC9298070",
  "about": "“Lack of a Clinically Meaningful Drug Interaction Between the HIV‐1 Antiretroviral Agents Islatravir, Dolutegravir, and Tenofovir Disoproxil Fumarate” (Clinical Pharmacology in Drug Development, 2021)",
  "key": {"CYP2C8": {"system": "CYP2C8", "design": "method as in PMID 34452431", "conditions": "at concentrations up to 100 μM; cited from earlier work"}, "[1]": {"system": "drug transporters, pumps, transfer proteins, extrusion proteins, or resistance proteins", "conditions": "cited from earlier work"}, "CYP2C19": {"system": "CYP2C19", "design": "method as in PMID 34452431", "conditions": "at concentrations up to 100 μM; cited from earlier work"}, "CYP2B6": {"system": "CYP2B6", "design": "method as in PMID 34452431", "conditions": "at concentrations up to 100 μM; cited from earlier work"}, "[2]": {"system": "uridine diphosphate glucuronosyltransferase 1A1", "design": "method as in PMID 34452431", "conditions": "at concentrations up to 100 μM; cited from earlier work"}, "CYP1A2": {"system": "CYP1A2", "design": "method as in PMID 34452431", "conditions": "at concentrations up to 100 μM; cited from earlier work"}, "[3]": {"design": "method as in PMID 34452431", "conditions": "cited from earlier work"}, "HIV‐1 [4]": {"system": "HIV‐1", "design": "method as in ref 17 = [17]; 17 Molina JM , Yazdanpanah Y , Afani Saud A , et al. MK‐8591 at doses of 0.25 to 2.25 mg QD, in combination with doravirine establishes and maintains viral suppression through 48 weeks in treatment‐na", "conditions": "islatravir in combination with doravirine, treatment-naive adults with HIV-1, phase 2b; cited from earlier work"}, "HIV‐1 [5]": {"system": "HIV‐1", "design": "method as in PMID 31911147", "conditions": "single oral dose as low as 0.5 mg, treatment-naive adults with HIV-1; cited from earlier work"}, "[6]": {"assay": "Plasma pharmacokinetics in phase 1, open-label, fixed-sequence, 2-period drug interaction trial (MK-8591-005)", "type": "in vivo, human", "protocol": "(§1) This was a phase 1, open‐label, fixed‐sequence, 2‐period trial in adults without HIV (protocol MK‐8591‐005). In period 1, participants received a single oral dose of 20 mg islatravir. In period 2, participants received multiple oral doses of 50 mg dolutegravir and 300 mg TDF once daily for 11 consecutive days (days 1‐11), with a single oral dose of 20 mg islatravir coadministered on day 8. There was a washout period of ≥7 days between islatravir dosing in period 1 and the first dose of dolutegravir and TDF in period 2 (Figure 1).\nBlood samples for islatravir plasma analysis were collected before dosing and at selected time points over 96 hours following administration of islatravir on day 1 of period 1 and day 8 of period 2. In period 2, samples taken at 24, 48, and 72 hours for islatravir plasma analysis were collected before dose administration of dolutegravir and TDF. Blood samples for plasma analysis of dolutegravir and tenofovir were collected before dosing on days 1, 7, and 8 of period 2 and at selected time points over 24 hours after dosing on days 7 and 8 of period 2. The 24 hour samples for dolutegravir and tenofovir analysis for days 7 and 8 were collected before dosing of dolutegravir and TDF.\nPlasma concentrations of islatravir, dolutegravir, and tenofovir were determined by inVentiv Health Clinique (Québec City, Québec, Canada) using validated high‐performance liquid chromatography coupled to tandem mass spectrometry methods.\nIslatravir (m/z 294.000/154.000) was extracted using an automated protein precipitation method using [^13C,^15N3]‐ISL as internal standard (m/z 297.800/158.000). The extracted samples were assessed on a system equipped with a X Select HSS T3 C18, 50×2.1 mm, 2.5 μm column with water/acetonitrile with formic acid mobile phase. […] The lower limit of quantitation for islatravir was 0.10 ng/mL, with an analytical range of 0.10 to 100.00 ng/mL.\nDolutegravir (m/z 420.200/277.200) was extracted using an automated protein precipitation method using [C^13‐d5]‐dolutegravir as the internal standard (m/z 426.300/277.300). The extracted samples were assessed on a system equipped with an ACE 3 C18, 30 × 4.6 mm, 3 μm column (Avantor, Radnor, Pennsylvania) with water/methanol with ammonium formate and formic acid mobile phase. […] The lower limit of quantitation for dolutegravir was 10.00 ng/mL, with an analytical range of 10.00 to 10 000.00 ng/mL.\nTenofovir (m/z 288.200/176.200) was extracted using an automated solid phase extraction using tenofovir‐d6 as internal standard (m/z 294.100/182.300). The extracted samples were assessed on a system equipped with an Atlantis dC18, 75 × 4.6 mm, 3 μm column (Waters Corp., Milford, Massachusetts) with water/acetonitrile with ammonium formate and formic acid mobile phase. […] The lower limit of quantitation for tenofovir was 0.50 ng/mL, with an analytical range of 0.50 to 500.00 ng/mL.\nPlasma islatravir, dolutegravir, and tenofovir pharmacokinetics were summarized descriptively. Pharmacokinetic parameter values were calculated using the software Phoenix WinNonlin version 6.3 (Certara, Princeton, New Jersey). Cmax, C24, and tmax values were obtained directly from the observed plasma concentration–time data."}, "[7]": {"assay": "Safety and tolerability in the phase 1 trial (adverse event reports, laboratory tests, ECG, vital signs)", "type": "in vivo, human", "conditions": "for participants reporting AEs considered drug-related: of 12 participants; for tolerability: adults without HIV, N = 12", "protocol": "as §1\nSafety and tolerability were monitored by repeated clinical and laboratory evaluations for the duration of the trial. Safety evaluations included adverse event (AE) reports, laboratory tests, 12‐lead electrocardiograms, and vital signs.\nIncidence of adverse experiences was descriptively summarized."}, "[8]": {"design": "method as in ref 14, 15 = [14]; 14 Rudd D , Cao Y , Vaddady P , et al. Modeling‐supported islatravir dose selection for phase 3 . Poster presented at Conference on Retroviruses and Opportunistic Infections (CROI); March 8–10 , 2020 || [15]; 15 Matthews RP , Rudd JD , Levine V , et al. Multiple daily doses of MK‐8591 as low as 0.25 mg are expected to suppress HIV . Oral presentation at Conference on Retroviruses and Opportunistic Infectio", "conditions": "single oral doses of islatravir, adults without HIV; cited from earlier work"}, "CYP3A4": {"system": "CYP3A4", "design": "method as in PMID 34452431", "conditions": "up to 200 μM; cited from earlier work"}, "CYP2C9": {"system": "CYP2C9", "design": "method as in PMID 34452431", "conditions": "at concentrations up to 100 μM; cited from earlier work"}},
  "note": "Like-named read-outs stand apart in the source and are kept apart here.",
  "data": [
    {"smiles": "C#C[C@]1(CO)O[C@@H](n2cnc3c(N)nc(F)nc32)C[C@@H]1O", "note": "[Islatravir, 4′‐Ethynyl‐2‐fluoro‐2′‐deoxyadenosine]", "values": [
      {"measurement": "inhibitory effect on CYP2C8", "setting": "CYP2C8", "value": "no inhibitory effect"},
      {"measurement": "interference with drug transporters, pumps, transfer proteins, extrusion proteins, or resistance proteins", "setting": "[1]", "value": "not found to interfere"},
      {"measurement": "inhibitory effect on CYP2C19", "setting": "CYP2C19", "value": "no inhibitory effect"},
      {"measurement": "inhibitory effect on CYP2B6", "setting": "CYP2B6", "value": "no inhibitory effect"},
      {"measurement": "inhibitory effects on uridine diphosphate glucuronosyltransferase 1A1", "setting": "[2]", "value": "No inhibitory effects"},
      {"measurement": "inhibitory effect on CYP1A2", "setting": "CYP1A2", "value": "no inhibitory effect"},
      {"measurement": "plasma protein binding", "setting": "[3]", "value": "low"},
      {"measurement": "duration of maintained virologic suppression", "setting": "HIV‐1 [4]", "value": "up to 48 weeks"},
      {"measurement": "duration of effective viral suppression", "setting": "HIV‐1 [5]", "value": "up to 7 days"},
      {"measurement": "increase of islatravir AUC0‐inf on coadministration", "setting": "[6]; coadministration with steady-state dolutegravir and TDF compared with islatravir administered alone", "value": 28, "unit": "%"},
      {"measurement": "half-life", "setting": "[6]; human, oral, plasma islatravir, single 20 mg islatravir on day 8 with 50 mg dolutegravir + 300 mg TDF once daily, period 2, N = 12, read-out: Apparent terminal t1/2, geometric mean (geometric CV %) (converted)", "value": 2.33, "unit": "days"},
      {"measurement": "AUC", "setting": "[6]; human, plasma, oral, plasma islatravir, single 20 mg islatravir on day 8 with 50 mg dolutegravir + 300 mg TDF once daily days 1-11, period 2, N = 12, read-out: AUC0‐inf, AM (SD)", "value": 2.53, "unit": "µM·h"},
      {"measurement": "AUC", "setting": "[6]; human, plasma, oral, plasma islatravir, single 20 mg islatravir on day 8 with 50 mg dolutegravir + 300 mg TDF once daily days 1-11, period 2, N = 12, read-out: AUC0‐inf, GM (95%CI)", "value": 2.51, "unit": "µM·h"},
      {"measurement": "Cmax", "setting": "[6]; human, plasma, oral, plasma islatravir, single 20 mg islatravir on day 8 with 50 mg dolutegravir + 300 mg TDF once daily days 1-11, period 2, N = 12, read-out: Cmax, AM (SD)", "value": 522, "unit": "nM"},
      {"measurement": "Cmax", "setting": "[6]; human, plasma, oral, plasma islatravir, single 20 mg islatravir on day 8 with 50 mg dolutegravir + 300 mg TDF once daily days 1-11, period 2, N = 12, read-out: Cmax, GM (95%CI)", "value": 510, "unit": "nM"},
      {"measurement": "half-life", "setting": "[6]; human, plasma, oral, plasma islatravir, single 20 mg islatravir on day 8 with 50 mg dolutegravir + 300 mg TDF once daily, period 2, N = 12, read-out: Apparent terminal t1/2, AM (SD) (converted)", "value": 2.34, "unit": "days"},
      {"measurement": "AUC", "setting": "[6]; human, plasma, po, 20 mg, plasma islatravir, islatravir alone, single oral 20 mg, day 1 period 1, N = 12, read-out: AUC0‐inf, AM (SD)", "value": 2, "unit": "µM·h"},
      {"measurement": "AUC", "setting": "[6]; human, plasma, po, 20 mg, plasma islatravir, islatravir alone, single oral 20 mg, day 1 period 1, N = 12, read-out: AUC0‐inf, GM (95%CI)", "value": 1.97, "unit": "µM·h"},
      {"measurement": "half-life", "setting": "[6]; human, plasma, po, 20 mg, plasma islatravir, islatravir alone, single oral 20 mg, day 1 period 1, N = 12, read-out: Apparent terminal t1/2, AM (SD) (converted)", "value": 2.38, "unit": "days"},
      {"measurement": "half-life", "setting": "[6]; human, plasma, po, 20 mg, plasma islatravir, islatravir alone, single oral 20 mg, day 1 period 1, N = 12, read-out: Apparent terminal t1/2, geometric mean (geometric CV %) (converted)", "value": 2.36, "unit": "days"},
      {"measurement": "Cmax", "setting": "[6]; human, plasma, po, 20 mg, plasma islatravir, islatravir alone, single oral 20 mg, day 1 period 1, N = 12, read-out: Cmax, AM (SD)", "value": 495, "unit": "nM"},
      {"measurement": "Cmax", "setting": "[6]; human, plasma, po, 20 mg, plasma islatravir, islatravir alone, single oral 20 mg, day 1 period 1, N = 12, read-out: Cmax, GM (95%CI)", "value": 479, "unit": "nM"},
      {"measurement": "Tmax", "setting": "[6]; human, plasma, po, 20 mg, plasma islatravir, islatravir alone, single oral 20 mg, day 1 period 1, N = 12, read-out: tmax, median (min‐max)", "value": 45, "unit": "min"},
      {"measurement": "tmax, median (min‐max)", "setting": "[6]; plasma islatravir, single 20 mg islatravir on day 8 with 50 mg dolutegravir + 300 mg TDF once daily, period 2, N = 12", "value": "1.00 (0.50‐2.01) h"},
      {"measurement": "participants reporting AEs considered drug-related", "setting": "[7]; after administration of islatravir", "value": 3, "unit": "participants"},
      {"measurement": "participants reporting AEs considered drug-related", "setting": "[7]; after coadministration of all 3 therapies (islatravir, dolutegravir, TDF)", "value": 1, "unit": "participant"},
      {"measurement": "tolerability", "setting": "[7]; islatravir alone, single oral 20 mg", "value": "generally well tolerated"},
      {"measurement": "tolerability", "setting": "[7]; islatravir in combination with dolutegravir and TDF", "value": "generally well tolerated"},
      {"measurement": "time to peak plasma concentrations", "setting": "[8]", "value": "≈ 0.5 hours"},
      {"measurement": "inhibitory effect on CYP3A4", "setting": "CYP3A4", "value": "no inhibitory effect"},
      {"measurement": "inhibitory effect on CYP2C9", "setting": "CYP2C9", "value": "no inhibitory effect"}
    ]}
  ]
}
